# Measured values from paper PMC10044725, “Antioxidant, Anti-Inflammatory and Anti-Diabetic Activities of Tectona grandis Methanolic Extracts, Fractions, and Isolated Compounds” (Antioxidants, 2023).
# Marks after values point to notes of the source that are not given here.
# Legend:
# [1] = DPPH free radical scavenging assay; details: half scavenging concentration; for EC50: isolated compounds, read-out: DPPH Assay SC50
# Experimental: The DPPH free radical scavenging activities of T. grandis methanolic extract, different fractions and its compounds were conducted according to Dr. Yang et al.. […] The absorbance was measured using a microplate reader at 517 nm, and ascorbic acid was used as a positive control. The DPPH scavenging activity was calculated according to the following formula: Scavenging activity (%) = [1 − (A1 − A2)/(A3 − A4)] × 100% (1) where A1 is the OD value of the tested samples, A2 is the OD value of the sample control, A3 is the OD value of the negative control and A4 is the OD value of the blank control. The analysis was performed in triplicates and the results were described as SC50 values.
# [2] = ABTS radical cation scavenging assay (Trolox equivalent)
# Experimental: The ABTS radical cation (ABTS•+) scavenging activities were conducted in accordance with the instructions for the ABTS kit. The total antioxidant activity values were estimated using the Trolox equivalent antioxidant capacity test. The detection concentration of methanolic extract and different fractions was 80 μg/mL, and the detection concentration of compounds (1–23) was 50 μM. […] Then, 190 μL of ABTS working reagent was mixed with 10 μL sample and incubated at room temperature for 5 min. The absorbance was then measured using a microplate reader at 734 nm, and the scavenging activity was calculated according to Equation (2). The blank control group used DMSO to replace the sample. […] The analysis was performed in triplicates, 1.424, 0.0012 was a constant.
# [3] = Ferric reducing antioxidant power (FRAP) assay; details: Trolox equivalent
# Experimental: The FRAP assay was determined in accordance with the instructions for the FRAP kit. The total antioxidant activity values were estimated using the Trolox equivalent antioxidant capacity test. Initially, the detection concentration of methanolic extract and different fractions was 80 μg/mL, and the detection concentration of compounds (1–23) was 50 μM. Then, 190 μL of FRAP working reagent was mixed with 10 μL sample and incubated at room temperature for 20 min. The absorbance was then measured using a microplate reader at 593 nm, and the scavenging activity was calculated according to Equation (3). The blank control group used DMSO to replace the sample. […] The analysis was performed in triplicates, 0.8054, 0.0134 was a constant.
# α-glucosidase = assay: α-Glucosidase inhibition assay (pNPG); format: biochemical; details: for Inhibitory Rate (%): at a concentration of 50 µM; for IC50: compounds
# Experimental: The inhibitory effect on α-glucosidase was measured according to the previous report method with slight modifications. The 20 mM sample dissolved in DMSO was diluted to 50 μM in PBS, 10 μL sample was mixed with 50 μL of 0.1 μ/mL α-glucosidase solution in 0.1 M phosphate buffer (pH 6.5) in a 96-well microplate and 10 μL PBS was used as a blank control. The mixture was incubated at 37 °C for 10 min before adding 40 µL of 5 mM 4-nitrophenyl-α-D-glucopyranoside to each well. After 30 min of incubation at 37 °C, the reaction was terminated by adding 50 μL of 0.1 M Na2CO3 to this mixture. The released 4-nitrophenol absorbance measurements were carried out using a microplate reader (SpectraMax190, USA) at 405 nm.
# pBR322 DNA = assay: Prevention of AAPH-induced DNA oxidative damage; details: AAPH 20 mM; p < 0.0001 vs model
# Experimental: The effects of T. grandis methanolic extract, different fractions and its compounds 15, 19 and 23 on the prevention of DNA oxidative damage were carried out using the method of Han et al.. Initially, 8 μL pBR322 DNA (50 μg/mL) in PBS (0.1 M, pH 6.8) was mixed with different concentrations of T. grandis fractions and its compounds (12 μL) and incubated in water at 37 °C for 30 min. Then, 5 μL AAPH (20 mM) was added to the mixture and the reaction continued for 60 min. The control group used the same volume of PBS (0.1 M, pH 6.8) to replace AAPH. The pre-treated samples were mixed with 5 × DNA loading buffer, and the mixture (8 μL) was taken for 1.0% agarose gel electrophoresis for 25 min. After electrophoresis, the gels were stained with ethidium bromide for 20 min. Finally, images were taken using a DNA gel imaging system (ChampChemi 610, Beijing sage creation Co., Ltd. Beijing, China).
# [4] = methanolic extract and fractions at 80 μg/mL
Compound,EC50 [1],ABTS Assay ([2]; compounds at 50 μM),FRAP Assay ([3]; compounds at 50 μM),Inhibitory Rate (%) (α-glucosidase),IC50 (α-glucosidase),"DPPH Assay SC50 ([1]; methanolic extract and fractions, ascorbic acid positive control)","ABTS Assay [2, 4]","FRAP Assay [3, 4]",concentration at which a protective effect against DNA oxidative damage begins (pBR322 DNA)
"O=c1cc(-c2ccc(O)c(O)c2)oc2cc(O)cc(O)c12 [Compound 6, luteolin]",22.1 ± 1.24 µM,0.99 ± 0.07 ^a mmol Trolox/L,0.37 ± 0.05 ^b mmol Trolox/L,12.96 ± 2.08 ^d %,> 50 µM,,,,
"O=C1O[C@H]([C@@H](O)CO)C(O)=C1O [Ascorbic acid, reference compound]",13.45 ± 0.02 µM,0.85 ± 0.00 ^a mmol Trolox/L,1.01 ± 0.06 ^a mmol Trolox/L,,,3.39 ± 0.98 ^e µg/mL,0.99 ± 0.00 ^a mmol Trolox/L,1.35 ± 0.02 ^b mmol Trolox/L,
"COc1cc(O)c2c(=O)c(O)c(-c3ccc(O)c(O)c3)oc2c1 [Compound 7, rhamnetin]",16.9 ± 0.67 µM,0.92 ± 0.07 ^a mmol Trolox/L,0.33 ± 0.04 ^b mmol Trolox/L,85.13 ± 0.81 ^ab %,3.04 µM,,,,
"Cc1ccc2c(c1O)C(=O)c1cccc(O)c1C2=O [Compound 9, isozyganein]",,,,3.13 ± 4.06 ^e %,> 50 µM,,,,
"COc1cc(C(O)C(CO)Oc2c(OC)cc(/C=C/CO)cc2OC)cc(OC)c1O (stereo not drawn) [Compound 20, 7S,8R-syringylglycerol-8-O-4′-(synapyl alcohol) ether]",8.66 ± 0.43 µM,0.67 ± 0.01 ^b mmol Trolox/L,0.29 ± 0.00 ^b mmol Trolox/L,40.30 ± 0.76 ^c %,> 50 µM,,,,
"O=C(O)c1c[nH]c2ccccc12 [Compound 16, 1H-indole-3-carboxylic acid]",12.3 ± 0.53 µM,0.78 ± 0.01 ^a mmol Trolox/L,0.28 ± 0.01 ^b mmol Trolox/L,12.53 ± 0.76 ^d %,> 50 µM,,,,
"COc1ccc(/C=C/C=O)cc1O [Compound 17, 3-hydroxy-4-methoxycinnamaladehyde]",,0.80 ± 0.01 ^a mmol Trolox/L,,8.69 ± 1.94 ^de %,> 50 µM,,,,
"C[C@H]1O[C@H](O[C@H]2[C@H](O)[C@@H](O)[C@@H](O[C@H]3[C@H](O)[C@@H](O)C(O)O[C@@H]3CO)O[C@@H]2CO)[C@H](O)[C@@H](O)[C@@H]1N[C@H]1C=C(CO)[C@@H](O)[C@H](O)[C@H]1O (stereo partly drawn) [Acarbose, reference compound]",,,,99.53 ± 0.01 ^a %,,,,,
"COC(=O)[C@H]1O[C@@H](Oc2cc(O)c3c(=O)cc(-c4ccc(O)cc4)oc3c2)[C@H](O)[C@@H](O)[C@@H]1O [Compound 4, apigenin-7-O-β-D-glucuronide methyl ester]",31.5 ± 1.75 µM,0.21 ± 0.01 ^b mmol Trolox/L,0.02 ± 0.00 ^c mmol Trolox/L,68.54 ± 2.90 ^b %,14.2 ± 0.34 µM,,,,
"COc1ccc(-c2cc(=O)c3c(O)cc(O[C@@H]4O[C@H](C(=O)O)[C@@H](O)[C@H](O)[C@H]4O)cc3o2)cc1 [Compound 2, acacetin-7-O-β-glucuronide]",17.4 ± 1.08 µM,0.92 ± 0.01 ^a mmol Trolox/L,0.03 ± 0.01 ^c mmol Trolox/L,31.35 ± 6.46 ^c %,> 50 µM,,,,
"O=c1c(O)c(-c2ccc(O)c(O)c2)oc2cc(O)cc(O)c12 [Compound 8, quercetin]",,1.05 ± 0.01 ^a mmol Trolox/L,0.01 ± 0.00 ^c mmol Trolox/L,1.27 ± 0.25 ^e %,,,,,
"COC(=O)[C@H]1O[C@@H](Oc2cc(-c3cc(=O)c4c(O)cc(O)cc4o3)ccc2O)[C@H](O)[C@@H](O)[C@@H]1O [Compound 5, vitegnoside]",9.92 ± 0.36 µM,0.92 ± 0.00 ^a mmol Trolox/L,1.02 ± 0.01 ^a mmol Trolox/L,69.67 ± 2.20 ^b %,19.3 µM,,,,
"COc1cc(C2Oc3c(OC)cc(CCCO)cc3C2CO)ccc1O (stereo not drawn) [Compound 19, rel-(2α,3β)-7-O-methylcedrusin]",6.17 ± 0.06 µM,0.85 ± 0.03 ^a mmol Trolox/L,0.25 ± 0.01 ^b mmol Trolox/L,57.40 ± 1.32 ^bc %,,,,,5.0 mM
"O=C(O)C1OC(Oc2cc(-c3cc(=O)c4c(O)cc(O)cc4o3)ccc2O)C(O)C(O)C1O (stereo not drawn) [Compound 11, luteolin-3′-O-glucuronide]",,0.65 ± 0.00 ^b mmol Trolox/L,0.01 ± 0.00 ^c mmol Trolox/L,4.57 ± 4.37 ^e %,> 50 µM,,,,
"O=c1cc(-c2ccc(O)cc2)oc2cc(O)cc(O)c12 [Compound 3, apigenin]",5.22 ± 0.19 µM,0.05 ± 0.00 ^d mmol Trolox/L,0.01 ± 0.01 ^c mmol Trolox/L,29.06 ± 1.86 ^cd %,> 50 µM,,,,
"COc1cc(C)cc2c1C(=O)c1c(O)cc(O)cc1C2=O [Compound 12, 1-O-methylemodin]",,0.03 ± 0.00 ^d mmol Trolox/L,,53.04 ± 0.36 ^bc %,,,,,
"COc1cc(O)c2c(c1O)C(=O)c1cc(C)ccc1C2=O [Compound 22, austrocortirubin]",,0.32 ± 0.01 ^bc mmol Trolox/L,,20.58 ± 1.30 ^c %,> 50 µM,,,,
"Cc1cc2c(cc1O)C(=O)c1ccccc1C2=O [Compound 14, 3-hydroxy-2-methyl-9,10-anthraquinone]",25.8 ± 0.57 µM,0.09 ± 0.06 ^d mmol Trolox/L,0.03 ± 0.00 ^c mmol Trolox/L,20.03 ± 2.44 ^c %,> 50 µM,,,,
"O=C1c2cc(CO)ccc2C(=O)c2c(O)cccc21 [Compound 10, 1-hydroxy-6-hydroxymethyl anthraquinone]",,0.13± 0.00 ^c mmol Trolox/L,0.01 ± 0.01 ^c mmol Trolox/L,1.77 ± 4.08 ^e %,> 50 µM,,,,
